Literature values, collected in publication PMC9159073 (Journal of medicinal chemistry, 2022).
Where two headings read alike, the source gives them in different places.

What was measured:
SARS-CoV-2 PL^pro [1] = conditions: increase in FluoZin-3 fluorescence
SARS-CoV-2 PL^pro [2] = test system: SARS-CoV-2 PL^pro
SARS-CoV-2 PL^pro [3] = test system: SARS-CoV-2 PL^pro; remark: listed apart in the source
SARS-CoV-2 PL^pro [4] = conditions: for IC50: read-out: Enzymatic inhibition IC50; for Inhibition of SARS-CoV-2 PLpro: IC50 not quantified
SARS-CoV-2 PL^pro [5] = conditions: read-out: IC50 (FP assay)
[6] = test system: host DUBs and DUB-like proteases; conditions: 10 DUBs or DUB-like proteases
SARS-CoV-2 PL^pro [7] = conditions: read-out: KD (SPR)
SARS-CoV-2 M^pro = conditions: read-out: M^pro IC50; no reducing agent in the Mpro assay
SARS-CoV-2 PL^pro [8] = test system: SARS-CoV-2 PL^pro; remark: listed apart in the source
SARS-CoV-2 [9] = test system: SARS-CoV-2
SARS-CoV-2 [10] = conditions: for Antiviral effect in combination with hydroxychloroquine: combined with hydroxychloroquine; for Antiviral activity in combination with remdesivir: combined with remdesivir
SARS-CoV-2 [11] = conditions: read-out: Antiviral EC50; A549-hACE2 cells, virus yield reduction assay
SARS-CoV-2 PL^pro [12] = conditions: read-out: IC50, deISGylating activity of PLpro; ISG15-Rh substrate
SARS-CoV-2 PL^pro [13] = conditions: read-out: IC50, mass spectrometry assay; nsp 2/3 substrate
SARS-CoV-2 [14] = conditions: read-out: Antiviral EC50
[15] = FRET assay, hit validation study
[16] = SARS-CoV-2 infected Vero E6 cells
[17] = read-out: Antiviral EC50 (qRTPCR), Vero E6 cells, qRT-PCR assay
[18] = read-out: IC50, deubiquitinating activity of PLpro

Compound: c1ccc2sc(SSc3nc4ccccc4s3)nc2c1 [2,2’ -dithiobis(benzothiazole) (70), 2,2’ -dithiobis(benzothiazole)]
- Zinc ejection from PLpro (SARS-CoV-2 PL^pro [1]): eject zinc

Compound: c1ccc(SSc2ccccn2)nc1 [2,2’ -dithiodipyridine (69), 2,2’ -dithiodipyridine]
- Zinc ejection from PLpro (SARS-CoV-2 PL^pro [1]): eject zinc

Compound: O=C(O)c1cc(SSc2ccc([N+](=O)[O-])c(C(=O)O)c2)ccc1[N+](=O)[O-] [5,5’ -dithiobis(2-nitrobenzoic acid)]
- Zinc ejection from PLpro (SARS-CoV-2 PL^pro [1]): eject zinc

Compound: Nc1nc2[nH]cnc2c(=S)[nH]1 [6-TG (26), 6-thioguanine]
- Intracellular PLpro inhibition in the FlipGFP assay (SARS-CoV-2 PL^pro [2]): did not inhibit
- Binding to PLpro in the thermal shift assay (SARS-CoV-2 PL^pro [3]): no binding
- IC50 (SARS-CoV-2 PL^pro [4]; [15]): > 50 µM

Compound: Cc1ccc(NC2=CC(=O)c3sc(C)nc3C2=O)cc1 [Cdk4 inhibitor III (34)]
- IC50 (SARS-CoV-2 PL^pro [4]; HTS): 0.39 µM

Compound: Oc1c(Cl)cc(Cl)c2cccnc12 [Chloroxine (37), chloroxine]
- IC50 (SARS-CoV-2 PL^pro [5]): 7.24 µM
- Binding to PLpro in the biolayer interferometry and thermal shift assays (SARS-CoV-2 PL^pro [3]): showed binding

Compound: C[C@H](c1cccc2ccccc12)N1CCC(C(=O)NCc2cc(F)cc(NC(=O)N3CCN(C)CC3)c2)CC1 [Compound 8]
- IC50 (SARS-CoV-2 PL^pro [4]): 0.44 µM
- Inhibition of a panel of host DUBs and DUB-like proteases [6]: did not show significant inhibition
- Kd (SARS-CoV-2 PL^pro [7]): 2.6 µM

Compound: CC1(C)OC2=C(C(=O)C(=O)c3ccccc32)C1n1cc(-c2ccccc2)nn1 (stereo not shown) [Compound 38]
- IC50 (SARS-CoV-2 PL^pro [4]; 0.1 mM DTT in the PLpro assay): 1.7 µM

Compound: CN(Cc1cn(C2C3=C(OC2(C)C)c2ccccc2C(=O)C3=O)nn1)C1=CC(=O)c2ccccc2C1=O (stereo not shown) [Compound 39]
- IC50 (SARS-CoV-2 PL^pro [4]; 0.1 mM DTT in the PLpro assay): 2.2 µM

Compound: CN(Cc1cn(C2C3=C(OC2(C)C)c2ccccc2C(=O)C3=O)nn1)C1=C(Br)C(=O)c2ccccc2C1=O (stereo not shown) [Compound 40]
- IC50 (SARS-CoV-2 PL^pro [4]; 0.1 mM DTT in the PLpro assay): 3.1 µM
- IC50 (SARS-CoV-2 M^pro): 66 µM

Compound: COC(=O)/C=C/C(=O)NNC(=O)CCc1ccc(NC(C)=O)cc1C(=O)N[C@H](C)c1cccc2ccccc12 [Compound 47]
- Antiviral EC50 (SARS-CoV-2 [9]; [16]): insignificant cytoprotective effects
- IC50 (SARS-CoV-2 PL^pro [4]; covalent inhibitors): 0.23 µM

Compound: C#CC(=O)NNC(=O)CCc1ccccc1C(=O)N[C@H](C)c1cccc2ccccc12 [Compound 48]
- Antiviral EC50 (SARS-CoV-2 [9]; [16]): cytotoxic
- IC50 (SARS-CoV-2 PL^pro [4]; covalent inhibitors): 0.098 µM

Compound: C[C@@H](NC(=O)c1ccccc1CCC(=O)NNC(=O)CCl)c1cccc2ccccc12 [Compound 49]
- IC50 (SARS-CoV-2 PL^pro [4]; covalent inhibitors): 5.4 µM

Compound: C[C@@H](NC(=O)c1ccccc1CCC(=O)NNC(=O)CC#N)c1cccc2ccccc12 [Compound 50]
- IC50 (SARS-CoV-2 PL^pro [4]; covalent inhibitors): 8 µM

Compound: C[C@@H](NC(=O)c1ccccc1CCC(=O)NNC(=O)/C(C#N)=C/C1CC1)c1cccc2ccccc12 [Compound 51]
- IC50 (SARS-CoV-2 PL^pro [4]; covalent inhibitors): > 200 µM

Compound: CCN(CC)C(=S)SSC(=S)N(CC)CC [Disulfiram (67), disulfiram]
- Antiviral effect in combination with hydroxychloroquine (SARS-CoV-2 [10]): synergistic antiviral effect
- Antiviral activity in combination with remdesivir (SARS-CoV-2 [10]): synergistic
- Inhibition of nsp13 ATPase activity (SARS-CoV-2 nsp13): inhibit
- Inhibition of nsp14 exoribonuclease activity (SARS-CoV-2 nsp14): inhibit
- Zinc ejection from PLpro (SARS-CoV-2 PL^pro [1]): eject zinc

Compound: O=c1c2ccccc2[se]n1-c1ccccc1 [Ebselen (55), ebselen]
- Antiviral effect in combination with hydroxychloroquine (SARS-CoV-2 [10]): synergistic antiviral effect
- Antiviral activity in combination with remdesivir (SARS-CoV-2 [10]): synergistic
- Inhibition of nsp13 ATPase activity (SARS-CoV-2 nsp13): inhibit
- Inhibition of nsp14 exoribonuclease activity (SARS-CoV-2 nsp14): inhibit
- Zinc ejection from PLpro (SARS-CoV-2 PL^pro [1]): eject zinc

Compound: Cc1ccc(N)cc1C(=O)N[C@H](C)c1cccc2ccccc12 [GRL0617 (4), GRL0617]
- EC50 (SARS-CoV-2 [11]): > 20 µM

Compound: O=Cc1ccc(O)cc1 [HBA (22), 4-hydroxybenzaldehyde]
- Antiviral EC50 (qRTPCR) (SARS-CoV-2 [9]; Vero E6 cells, qRT-PCR assay): not conclusive
- IC50 (SARS-CoV-2 PL^pro [12]): 3.99 ± 1.33 µM

Compound: COC(=O)c1ccc(O)c(O)c1 [HE9 (20), methyl 3,4-dihydroxybenzoate]
- EC50 (SARS-CoV-2 [9]; read-out: Antiviral EC50 (CPE), cytopathic effect (CPE) assay): 10.4 µM
- EC50 (SARS-CoV-2 [9]; [17]): 0.13 µM

Compound: C[C@H](c1ccccc1Cl)N(C)Cc1cc(O)ccc1Cl [Jun9-13-9 (11)]
- IC50 (SARS-CoV-2 PL^pro [4]; FRET-based enzymatic assay): 6.67 µM

Compound: CC(C)C(=O)OC[C@H]1O[C@@H](n2ccc(NO)nc2=O)[C@H](O)[C@@H]1O [Molnupiravir (2), molnupiravir]
- Ames test (bacteria): positive

Compound: O=c1nc(NO)ccn1[C@@H]1O[C@H](CO)[C@@H](O)[C@H]1O [NHC, β-d-N^4-hydroxycytidine]
- Host mutational activity (mammalian cell culture): displayed host mutational activity

Compound: O=C1c2ccccc2-c2nc3nnnn3nc21 [PKK1/Akt/Flt dual pathway inhibitor (32)]
- IC50 (SARS-CoV-2 PL^pro [4]; HTS): 0.26 µM

Compound: Cc1cc2nc3c(=O)[nH]c(=O)nc-3n(C)c2cc1C=O [Ro 08–2750 (33)]
- IC50 (SARS-CoV-2 PL^pro [4]; HTS): 0.53 µM

Compound: COCC[n+]1c2c(n(Cc3cnccn3)c1C)C(=O)c1ccccc1C2=O.[Br-] [YM155 (27), YM155]
- Intracellular PLpro inhibition in the FlipGFP assay (SARS-CoV-2 PL^pro [2]): not conclusive due to cell cytotoxicity
- IC50 (SARS-CoV-2 PL^pro [4]; [15]): 20.1 µM
- IC50 (SARS-CoV-2 PL^pro [4]; FRET-based enzymatic assay, Arg-Leu-Arg-Gly-Gly-AMC substrate, 50 mM HEPES, pH 7.5, 2 mM DTT): 2.47 ± 0.46 µM
- IC50 (SARS-CoV-2 PL^pro [13]): > 50 µM

Compound: OCCc1ccc(O)cc1 [YRL (21), 4-(2-hydroxyethyl)phenol]
- Antiviral EC50 (CPE) (SARS-CoV-2 [9]; cytopathic effect (CPE) assay): failed to show inhibition
- EC50 (SARS-CoV-2 [9]; [17]): 1 µM
- IC50 (SARS-CoV-2 PL^pro [12]): 6.68 ± 1.2 µM

Compound: O=C1c2c(O)cccc2[C@H]([C@@H]2O[C@H](CO)[C@@H](O)[C@H](O)[C@H]2O)c2cc(CO)cc(O)c21 [aloin A (42), aloin A]
- IC50 (SARS-CoV-2 PL^pro [4]): 13.2 µM
- IC50 (SARS-CoV-2 PL^pro [8]; [18]): 15.7 µM

Compound: O=C1c2c(O)cccc2[C@@H]([C@@H]2O[C@H](CO)[C@@H](O)[C@H](O)[C@H]2O)c2cc(CO)cc(O)c21 [aloin B (43), aloin B]
- IC50 (SARS-CoV-2 PL^pro [4]): 16.1 µM
- IC50 (SARS-CoV-2 PL^pro [8]; [18]): 17.5 µM

Compound: C[C@H]1COC2=C1C(=O)C(=O)c1c2ccc2c1CCCC2(C)C [cryptotanshinone (28), cryptotanshinone]
- Intracellular PLpro inhibition in the FlipGFP assay (SARS-CoV-2 PL^pro [2]): not conclusive due to cell cytotoxicity
- EC50 (SARS-CoV-2 [14]): > 200 µM

Compound: Cc1cccc2c3c(ccc12)C1=C(C(=O)C3=O)[C@@H](C)CO1 [dihydrotanshinone I (30), dihydrotanshinone I]
- IC50 (SARS-CoV-2 PL^pro [4]; [15]): 33 µM
- IC50 (SARS-CoV-2 PL^pro [4]; HTS): 0.59 µM

Compound: CCC(CC)COC(=O)[C@H](C)N[P@](=O)(OC[C@H]1O[C@@](C#N)(c2ccc3c(N)ncnn23)[C@H](O)[C@@H]1O)Oc1ccccc1 [remdesivir (1), remdesivir]
- EC50 (SARS-CoV-2 [9]; read-out: Antiviral EC50, SARS-CoV-2 infected Vero E6 cells): 0.74 µM

Compound: Cc1coc2c1C(=O)C(=O)c1c-2ccc2c1CCCC2(C)C [tanshinone IIA (31), tanshinone IIA]
- EC50 (SARS-CoV-2 [14]): > 200 µM

Compound: CC1(C)CCC2=C(O1)c1ccccc1C(=O)C2=O [β-lapachone (35), β-lapachone]
- IC50 (SARS-CoV-2 PL^pro [4]; HTS): 0.61 µM

Compound: Ac-Abu(Bth)-Dap-Gly-Gly-VME [VIR250 (44)]
- Inhibition of SARS-CoV PLpro (SARS-CoV PL^pro): dose-dependent inhibition
- Inhibition of SARS-CoV-2 PLpro (SARS-CoV-2 PL^pro [4]): dose-dependent inhibition

Compound: Ac-hTyr-Dap-Gly-Gly-VME [VIR251 (45)]
- Inhibition of SARS-CoV PLpro (SARS-CoV PL^pro): dose-dependent inhibition
- Inhibition of SARS-CoV-2 PLpro (SARS-CoV-2 PL^pro [4]): dose-dependent inhibition
